According to patent EP1171107B1, “USE OF A PHARMACEUTICAL COMPOSITION IN THE MANUFACTURE OF A MEDICAMENT FOR THE TREATMENT OF PATHOLOGICAL CONDITIONS OF THE EYE CAUSED BY BACTERIA, VIRUSES, FUNGI, YEASTS AND PROTOZOA” (Dr. GERHARD MANN chem.-pharm. Fabrik GmbH, priority 1999, dated 2000):

What was measured:
Format in all cases: cell-based
Sc. pneumoniae [1] = test: Qualitative examination: enrichment of the inoculated test preparation in broth
Excerpt: (§1) Escherichia (E.coli) Staphylococcus (S.aureus) Streptococcus (Sc.) Pneumoniae Pseudomonas (P.aeruginosa) Staphylococcus (S. epidermidis) Haemophilus (H. influenzae)
(§2) Die verschiedenen Testkeime wurde jeweils aus einem Lyophilisat in NaCl-Peptonpuffer homogenisiert und auf Caseinpepton-Sojymehlpepton. (Caso-) Agar (Fa. bioMérieux; Art. Nr. 43019) bez. Kochblut-Agar (Fa. bioMérieux; Art. Nr. 43109) subkultiviert. Die Teststämme wurden vor Versuchsbeginn durch Erstellen eines biochemischen Profils mittels ATB/Vitek-System (Fa. bioMérieux, Nürtingen) auf Reinheit und Identität überprüft.
(§3) Die verschiedenen Testsubstanzen a. bis j. wurden jeweils zu 5 ml in sterile Zentrifugenröhrchen abgefüllt und mit ca. 10^5 KBE^*/ml (* = koloniebildende Einheiten) der oben genannten Testkeime kontaminiert. Pro Substanz wurde für jeden Testkeim und jede zu prüfende Testzeit ein separater Ansatz angeimpft, d.h.10 Testsubstanzen zu jeweils 7 Testzeiten und 6 Testkeime (= insgesamt 502 Testansätze). […] Der Überstand wurde dekantiert und das Pellet in 5 ml NaCl Peptonpuffer aufgenommen und resuspendiert. Die Suspension wurde erneut 10 Minuten bei 3000 rpm abzentrifugiert und 5 ml NaCl-Peptonpuffer aufgenommen und mittels Vortex homogenisiert.
(§4) Jeweils 2 ml der Testansätze wurden in 20 ml Caso-Bouillon oder für H. influenzae, in Fildes-Medium der Firma Becton Dickinson, ARt. Nr. 0349-739, angereichert und ebenfalls maximal 4 Tage bei 33± 2°C bebrütet. Ein negatives Ergebnis der Anreicherung belegt die Elimination der inokulierten Keime.

S.epidermidis [2] = test: as above
Excerpt: as §1, §2, §3, §4

E.coli [3] = test: as above
Excerpt: as §1, §2, §3, §4

P.aeruginosa [4] = test: as above
Excerpt: as §1, §2
(§5) Die verschiedenen Testsubstanzen a. bis j. wurden jeweils zu 5 ml in sterile Zentrifugenröhrchen abgefüllt und mit ca. 10^5 KBE^*/ml (* = koloniebildende Einheiten) der oben genannten Testkeime kontaminiert. Pro Substanz wurde für jeden Testkeim und jede zu prüfende Testzeit ein separater Ansatz angeimpft, d.h.10 Testsubstanzen zu jeweils 7 Testzeiten und 6 Testkeime (= insgesamt 502 Testansätze). Nach 2, 6, 8, 24, 32, 48 und 72 Stunden wurde dann der jeweilige Testansatz 10 Minuten bei 3000 rpm abzentrifugiert. Der Überstand wurde dekantiert und das Pellet in 5 ml NaCl Peptonpuffer aufgenommen und resuspendiert. Die Suspension wurde erneut 10 Minuten bei 3000 rpm abzentrifugiert und 5 ml NaCl-Peptonpuffer aufgenommen und mittels Vortex homogenisiert.
as §4

H.influenzae [5] = test: as above
Excerpt: as §1, §2, §5, §4

S.aureus = test: Quantitative germ count (re-isolation, surface method) after inoculating the test preparation; details: Ausgangskeimzahl 2,6 x 10^5 KBE/ml
Excerpt: as §1, §2
(§6) Die Ausgangskeimzahl wurde im Oberflächenverfahren mit Hilfe eines Spiralplaters (Fa. Meintrup, Lähden) ermittelt und ist im einzelnen den Tabellen 1-12 zu entnehmen.
as §3
(§7) Die anschließende Keimzahlbestimmung erfolgte im Oberflächenverfahren durch Ausspiralisieren eines […] Aliquots auf Caso-Agar bzw. für H. influenzae auf Kochblut-Agar. Die Platten wurden bei 33±2°C für max. 4 Tage bebrütet. Die Nachweisgrenze des Verfahrens liegt bei 100 KBE/ml.

Sc. pneumoniae [6] = test: as above; details: Ausgangskeimzahl 3,7 x 10^5 KBE/ml
Excerpt: as §1, §2, §6, §3, §7

H.influenzae [7] = test: as above; details: Ausgangskeimzahl 2,8 x 10^5 KBE/ml
Excerpt: as §1, §2, §6, §3, §7

E.coli [8] = test: as above; details: Ausgangskeimzahl 2,7 x 10^5 KBE/ml
Excerpt: as §1, §2, §6, §3, §7

P.aeruginosa [9] = test: as above; details: Ausgangskeimzahl 2,7 x 10^5 KBE/ml
Excerpt: as §1, §2, §6, §5, §7

S.epidermidis [10] = test: as above; details: Ausgangskeimzahl 2,1 x 10^5 KBE/ml
Excerpt: as §1, §2, §6, §5, §7

CCCCCCCCCCCC[N+](C)(C)Cc1ccccc1 [Benzalkoniumchlorid 0,005 Gew.-%, Benzododeciniumchlorid]
Ergebnis der Reisolierung qualitiativ (+/-) nach Anreicherung (Sc. pneumoniae [1]; 2 h after inoculation): - | Ergebnis der Reisolierung qualitiativ (+/-) nach Anreicherung (Sc. pneumoniae [1]; 4 h after inoculation): - | Ergebnis der Reisolierung qualitiativ (+/-) nach Anreicherung (Sc. pneumoniae [1]; 6 h after inoculation): - | Ergebnis der Reisolierung qualitiativ (+/-) nach Anreicherung (Sc. pneumoniae [1]; 8 h after inoculation): - | Ergebnis der Reisolierung qualitiativ (+/-) nach Anreicherung (Sc. pneumoniae [1]; 24 h after inoculation): - | Ergebnis der Reisolierung qualitiativ (+/-) nach Anreicherung (Sc. pneumoniae [1]; 32 h after inoculation): - | Ergebnis der Reisolierung qualitiativ (+/-) nach Anreicherung (Sc. pneumoniae [1]; 48 h after inoculation): - | Ergebnis der Reisolierung qualitiativ (+/-) nach Anreicherung (Sc. pneumoniae [1]; 72 h after inoculation): - | Ergebnis der Reisolierung qualitiativ (+/-) nach Anreicherung (S.epidermidis [2]; 2 h after inoculation): - | Ergebnis der Reisolierung qualitiativ (+/-) nach Anreicherung (S.epidermidis [2]; 4 h after inoculation): - | Ergebnis der Reisolierung qualitiativ (+/-) nach Anreicherung (S.epidermidis [2]; 6 h after inoculation): - | Ergebnis der Reisolierung qualitiativ (+/-) nach Anreicherung (S.epidermidis [2]; 8 h after inoculation): - | Ergebnis der Reisolierung qualitiativ (+/-) nach Anreicherung (S.epidermidis [2]; 24 h after inoculation): - | Ergebnis der Reisolierung qualitiativ (+/-) nach Anreicherung (S.epidermidis [2]; 32 h after inoculation): - | Ergebnis der Reisolierung qualitiativ (+/-) nach Anreicherung (S.epidermidis [2]; 48 h after inoculation): - | Ergebnis der Reisolierung qualitiativ (+/-) nach Anreicherung (S.epidermidis [2]; 72 h after inoculation): - | Ergebnis der Reisolierung qualitiativ (+/-) nach Anreicherung (E.coli [3]; 2 h after inoculation): - | Ergebnis der Reisolierung qualitiativ (+/-) nach Anreicherung (E.coli [3]; 4 h after inoculation): - | Ergebnis der Reisolierung qualitiativ (+/-) nach Anreicherung (E.coli [3]; 6 h after inoculation): - | Ergebnis der Reisolierung qualitiativ (+/-) nach Anreicherung (E.coli [3]; 8 h after inoculation): - | Ergebnis der Reisolierung qualitiativ (+/-) nach Anreicherung (E.coli [3]; 24 h after inoculation): - | Ergebnis der Reisolierung qualitiativ (+/-) nach Anreicherung (E.coli [3]; 32 h after inoculation): - | Ergebnis der Reisolierung qualitiativ (+/-) nach Anreicherung (E.coli [3]; 48 h after inoculation): - | Ergebnis der Reisolierung qualitiativ (+/-) nach Anreicherung (E.coli [3]; 72 h after inoculation): - | Ergebnis der Reisolierung qualitiativ (+/-) nach Anreicherung (P.aeruginosa [4]; 2 h after inoculation): - | Ergebnis der Reisolierung qualitiativ (+/-) nach Anreicherung (P.aeruginosa [4]; 4 h after inoculation): - | Ergebnis der Reisolierung qualitiativ (+/-) nach Anreicherung (P.aeruginosa [4]; 6 h after inoculation): - | Ergebnis der Reisolierung qualitiativ (+/-) nach Anreicherung (P.aeruginosa [4]; 8 h after inoculation): - | Ergebnis der Reisolierung qualitiativ (+/-) nach Anreicherung (P.aeruginosa [4]; 24 h after inoculation): - | Ergebnis der Reisolierung qualitiativ (+/-) nach Anreicherung (P.aeruginosa [4]; 32 h after inoculation): - | Ergebnis der Reisolierung qualitiativ (+/-) nach Anreicherung (P.aeruginosa [4]; 48 h after inoculation): - | Ergebnis der Reisolierung qualitiativ (+/-) nach Anreicherung (P.aeruginosa [4]; 72 h after inoculation): - | Ergebnis der Reisolierung qualitiativ (+/-) nach Anreicherung (H.influenzae [5]; 2 h after inoculation): - | Ergebnis der Reisolierung qualitiativ (+/-) nach Anreicherung (H.influenzae [5]; 4 h after inoculation): - | Ergebnis der Reisolierung qualitiativ (+/-) nach Anreicherung (H.influenzae [5]; 6 h after inoculation): - | Ergebnis der Reisolierung qualitiativ (+/-) nach Anreicherung (H.influenzae [5]; 8 h after inoculation): - | Ergebnis der Reisolierung qualitiativ (+/-) nach Anreicherung (H.influenzae [5]; 24 h after inoculation): - | Ergebnis der Reisolierung qualitiativ (+/-) nach Anreicherung (H.influenzae [5]; 32 h after inoculation): - | Ergebnis der Reisolierung qualitiativ (+/-) nach Anreicherung (H.influenzae [5]; 48 h after inoculation): - | Ergebnis der Reisolierung qualitiativ (+/-) nach Anreicherung (H.influenzae [5]; 72 h after inoculation): - | Ergebnis der Reisolierung (in KBE/ml) (S.aureus; 2 h after inoculation): <100 KBE/ml | Ergebnis der Reisolierung (in KBE/ml) (S.aureus; 4 h after inoculation): <100 KBE/ml | Ergebnis der Reisolierung (in KBE/ml) (S.aureus; 6 h after inoculation): <100 KBE/ml | Ergebnis der Reisolierung (in KBE/ml) (S.aureus; 8 h after inoculation): <100 KBE/ml | Ergebnis der Reisolierung (in KBE/ml) (S.aureus; 24 h after inoculation): <100 KBE/ml | Ergebnis der Reisolierung (in KBE/ml) (S.aureus; 32 h after inoculation): <100 KBE/ml | Ergebnis der Reisolierung (in KBE/ml) (S.aureus; 48 h after inoculation): <100 KBE/ml | Ergebnis der Reisolierung (in KBE/ml) (S.aureus; 72 h after inoculation): <100 KBE/ml | Ergebnis der Reisolierung (in KBE/ml) (Sc. pneumoniae [6]; 2 h after inoculation): <100 KBE/ml | Ergebnis der Reisolierung (in KBE/ml) (Sc. pneumoniae [6]; 4 h after inoculation): <100 KBE/ml | Ergebnis der Reisolierung (in KBE/ml) (Sc. pneumoniae [6]; 6 h after inoculation): <100 KBE/ml | Ergebnis der Reisolierung (in KBE/ml) (Sc. pneumoniae [6]; 8 h after inoculation): <100 KBE/ml | Ergebnis der Reisolierung (in KBE/ml) (Sc. pneumoniae [6]; 24 h after inoculation): <100 KBE/ml | Ergebnis der Reisolierung (in KBE/ml) (Sc. pneumoniae [6]; 32 h after inoculation): <100 KBE/ml | Ergebnis der Reisolierung (in KBE/ml) (Sc. pneumoniae [6]; 48 h after inoculation): <100 KBE/ml | Ergebnis der Reisolierung (in KBE/ml) (Sc. pneumoniae [6]; 72 h after inoculation): <100 KBE/ml | Ergebnis der Reisolierung (in KBE/ml) (H.influenzae [7]; 2 h after inoculation): <100 KBE/ml | Ergebnis der Reisolierung (in KBE/ml) (H.influenzae [7]; 4 h after inoculation): <100 KBE/ml | Ergebnis der Reisolierung (in KBE/ml) (H.influenzae [7]; 6 h after inoculation): <100 KBE/ml | Ergebnis der Reisolierung (in KBE/ml) (H.influenzae [7]; 8 h after inoculation): <100 KBE/ml | Ergebnis der Reisolierung (in KBE/ml) (H.influenzae [7]; 24 h after inoculation): <100 KBE/ml | Ergebnis der Reisolierung (in KBE/ml) (H.influenzae [7]; 32 h after inoculation): <100 KBE/ml | Ergebnis der Reisolierung (in KBE/ml) (H.influenzae [7]; 48 h after inoculation): <100 KBE/ml | Ergebnis der Reisolierung (in KBE/ml) (H.influenzae [7]; 72 h after inoculation): <100 KBE/ml | Ergebnis der Reisolierung (in KBE/ml) (E.coli [8]; 2 h after inoculation): <100 KBE/ml | Ergebnis der Reisolierung (in KBE/ml) (E.coli [8]; 4 h after inoculation): <100 KBE/ml | Ergebnis der Reisolierung (in KBE/ml) (E.coli [8]; 6 h after inoculation): <100 KBE/ml | Ergebnis der Reisolierung (in KBE/ml) (E.coli [8]; 8 h after inoculation): <100 KBE/ml | Ergebnis der Reisolierung (in KBE/ml) (E.coli [8]; 24 h after inoculation): <100 KBE/ml | Ergebnis der Reisolierung (in KBE/ml) (E.coli [8]; 32 h after inoculation): <100 KBE/ml | Ergebnis der Reisolierung (in KBE/ml) (E.coli [8]; 48 h after inoculation): <100 KBE/ml | Ergebnis der Reisolierung (in KBE/ml) (E.coli [8]; 72 h after inoculation): <100 KBE/ml | Ergebnis der Reisolierung (in KBE/ml) (P.aeruginosa [9]; 2 h after inoculation): <100 KBE/ml | Ergebnis der Reisolierung (in KBE/ml) (P.aeruginosa [9]; 4 h after inoculation): <100 KBE/ml | Ergebnis der Reisolierung (in KBE/ml) (P.aeruginosa [9]; 6 h after inoculation): <100 KBE/ml | Ergebnis der Reisolierung (in KBE/ml) (P.aeruginosa [9]; 8 h after inoculation): <100 KBE/ml | Ergebnis der Reisolierung (in KBE/ml) (P.aeruginosa [9]; 24 h after inoculation): <100 KBE/ml | Ergebnis der Reisolierung (in KBE/ml) (P.aeruginosa [9]; 32 h after inoculation): <100 KBE/ml | Ergebnis der Reisolierung (in KBE/ml) (P.aeruginosa [9]; 48 h after inoculation): <100 KBE/ml | Ergebnis der Reisolierung (in KBE/ml) (P.aeruginosa [9]; 72 h after inoculation): <100 KBE/ml | Ergebnis der Reisolierung (in KBE/ml) (S.epidermidis [10]; 2 h after inoculation): <100 KBE/ml | Ergebnis der Reisolierung (in KBE/ml) (S.epidermidis [10]; 4 h after inoculation): <100 KBE/ml | Ergebnis der Reisolierung (in KBE/ml) (S.epidermidis [10]; 6 h after inoculation): <100 KBE/ml | Ergebnis der Reisolierung (in KBE/ml) (S.epidermidis [10]; 8 h after inoculation): <100 KBE/ml | Ergebnis der Reisolierung (in KBE/ml) (S.epidermidis [10]; 24 h after inoculation): <100 KBE/ml | Ergebnis der Reisolierung (in KBE/ml) (S.epidermidis [10]; 32 h after inoculation): <100 KBE/ml | Ergebnis der Reisolierung (in KBE/ml) (S.epidermidis [10]; 48 h after inoculation): <100 KBE/ml | Ergebnis der Reisolierung (in KBE/ml) (S.epidermidis [10]; 72 h after inoculation): <100 KBE/ml
